Laboratory results as given in patent publication US20160046618A1, “Cyclopropyl Fused Thiazin-2-Amine Compounds as Beta-Secretase Inhibitors and Methods of Use” (AMGEN INC., priority 2014, published 2016).

Assays:
Aβ 40 in rat CSF = experiment: In vivo inhibition of beta-secretase: Aβ40 reduction in rat CSF; conditions: 10 mpk, after 4 h
Outline: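 Male Sprague Dawley rats (200 g) dosed orally in 2% HPMC, 1% Tween80, pH 2.2, at 3, 10 or 30 mg/kg; CSF and brain taken 4 h later. Brain homogenate centrifuged at 355,000 g; Aβ40 measured by ECL sandwich ELISA (4G8 capture, Abeta40 C-terminal Fab detection), as % reduction versus vehicle controls.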

Aβ 40 in rat brain = experiment: In vivo inhibition of beta-secretase: Aβ40 reduction in rat brain; conditions: 10 mpk, after 4 h
Outline: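 Rats were dosed by oral gavage at up to 100 mg/kg in 2% HPMC, 1% Tween80, pH 2.2, with vehicle-only controls. Supernatant Aβ40 was measured by ECL sandwich ELISA with biotinylated-4G8 capture and C-terminal Fab40 detection.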

human recombinant BACE1 = human recombinant BACE1 (Homo sapiens (Human), UniProt P56817); experiment: In vitro enzymatic BACE1 FRET assay; format: biochemical; conditions: read-out: IC50 IP (μM) BACE1 enzyme
Sequence of human recombinant BACE1 (P56817 46-501): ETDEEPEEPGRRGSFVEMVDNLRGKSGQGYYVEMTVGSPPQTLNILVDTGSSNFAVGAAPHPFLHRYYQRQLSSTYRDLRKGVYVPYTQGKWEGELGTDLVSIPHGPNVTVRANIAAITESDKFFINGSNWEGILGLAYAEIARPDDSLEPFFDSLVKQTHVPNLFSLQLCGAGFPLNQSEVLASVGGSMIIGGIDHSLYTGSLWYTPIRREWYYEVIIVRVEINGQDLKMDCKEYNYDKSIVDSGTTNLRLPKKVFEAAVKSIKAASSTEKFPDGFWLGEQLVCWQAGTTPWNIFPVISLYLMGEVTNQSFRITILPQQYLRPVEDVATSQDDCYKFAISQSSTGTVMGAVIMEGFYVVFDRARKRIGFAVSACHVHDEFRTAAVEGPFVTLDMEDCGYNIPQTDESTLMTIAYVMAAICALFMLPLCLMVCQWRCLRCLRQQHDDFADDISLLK
Outline: (§1)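 FRET cleavage assay using Ni-NTA-purified recombinant protease and 50 nM quenched peptide substrate, 1 h. Stopped by neutralising with Tris; fluorescence at 488/590 nm.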

[1] = test system: Aβ40 in conditioned medium of cells stably expressing Amyloid Precursor Protein (APP); experiment: In vitro BACE-1 cell-based assay (Aβ40 sandwich ELISA); conditions: read-out: IC50 IP (μM) BACE1 cell
Outline: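 APP-stable cells, pre-cultured 24 h at 37° C in DMEM/10% FBS, were treated 24 h with compound in a 10-point series starting at 100 μM or 10 μM (0.1% DMSO final). Secreted Aβ40 in conditioned medium was measured by pAb40/biotin-6E10 sandwich ELISA with Europium time-resolved fluorescence; IC50 from percent inhibition versus concentration.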

human recombinant BACE2 = human recombinant BACE2 (Homo sapiens (Human), UniProt Q9Y5Z0); experiment: In vitro enzymatic BACE2 FRET assay; format: biochemical; conditions: read-out: IC50 IP (μM) BACE2 enzyme
Sequence of human recombinant BACE2 (Q9Y5Z0 63-518): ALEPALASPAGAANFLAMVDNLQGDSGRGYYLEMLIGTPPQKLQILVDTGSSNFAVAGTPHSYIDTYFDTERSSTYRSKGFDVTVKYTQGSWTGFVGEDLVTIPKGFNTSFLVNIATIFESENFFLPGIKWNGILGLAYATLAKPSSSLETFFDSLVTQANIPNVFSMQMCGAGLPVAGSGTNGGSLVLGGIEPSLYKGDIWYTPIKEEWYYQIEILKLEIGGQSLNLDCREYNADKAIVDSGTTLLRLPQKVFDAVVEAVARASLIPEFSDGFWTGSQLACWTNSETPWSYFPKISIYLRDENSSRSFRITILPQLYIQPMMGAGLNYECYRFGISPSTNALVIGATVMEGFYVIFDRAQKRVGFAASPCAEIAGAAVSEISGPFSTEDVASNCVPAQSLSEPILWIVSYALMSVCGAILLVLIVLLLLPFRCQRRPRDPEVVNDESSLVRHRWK
Outline: as §1

Recombinant Cat D = Recombinant Cat D (Homo sapiens (Human), UniProt P07339); experiment: In vitro enzymatic Cathepsin D (Cat D) FRET assay; format: biochemical; conditions: read-out: IC50 IP (μM) CatD
Sequence of Recombinant Cat D (P07339 65-412): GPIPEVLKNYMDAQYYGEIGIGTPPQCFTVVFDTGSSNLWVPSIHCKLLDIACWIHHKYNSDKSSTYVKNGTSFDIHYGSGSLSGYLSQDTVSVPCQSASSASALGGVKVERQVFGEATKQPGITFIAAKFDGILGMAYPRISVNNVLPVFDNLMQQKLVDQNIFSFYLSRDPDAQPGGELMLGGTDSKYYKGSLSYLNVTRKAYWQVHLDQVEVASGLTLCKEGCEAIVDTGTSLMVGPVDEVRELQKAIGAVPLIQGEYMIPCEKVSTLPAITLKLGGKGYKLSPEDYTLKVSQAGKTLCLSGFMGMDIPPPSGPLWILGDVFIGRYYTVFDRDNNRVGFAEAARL
Outline: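 Cleavage of a 20 nM fluorophore/quencher peptide by CHO-expressed recombinant Cat D proceeded for one hour at pH 3.5 (0.05 M citrate, 5 mM CHAPS, 10% DMSO final). Tris addition neutralized the pH to end the reaction. Fluorescence was then measured (ex 500 nm/em 580 nm).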

SMILES	% Aβ 40 reduction in rat CSF at 10 mpk (Aβ 40 in rat CSF)	% Aβ 40 reduction in rat brain at 10 mpk (Aβ 40 in rat brain)	IC50 (human recombinant BACE1)	IC50 [1]	IC50 (human recombinant BACE2)	IC50 (Recombinant Cat D)
C[C@]1(c2cc(NC(=O)c3cnc(OCC(F)(F)F)cn3)cc(F)c2F)N=C(N)S[C@@]2(CF)C[C@H]21 [Example 814, N-(3-((1S,5S,6S)-3-amino-1-(fluoromethyl)-5-methyl-2-thia-4-azabicyclo[4.1.0]hept-3-en-5-yl)-4,5-difluorophenyl)-5-(2,2,2-trifluoroethoxy)-2-pyrazinecarboxamide]	76%	68%	0.000829 µM	0.00608 µM	0.0601 µM	595 µM
C#CCOc1cnc2c(Nc3ccc(F)c([C@@]4(C)N=C(N)S[C@@]5(CF)C[C@H]54)c3)nccc2n1 [Example 823, N-(3-((1S,5S,6S)-3-amino-1-(fluoromethyl)-5-methyl-2-thia-4-azabicyclo[4.1.0]hept-3-en-5-yl)-4-fluorophenyl)-2-(2-propyn-1-yloxy)pyrido[3,4-b]pyrazin-5-amine]	78%	78%	0.000791 µM	0.00186 µM	0.0296 µM	351 µM
C#C[C@H](C)Oc1cnc2c(Nc3ccc(F)c([C@@]4(C)N=C(N)S[C@@]5(CF)C[C@H]54)c3)nccc2n1 [Example 827, N-(3-((1S,5S,6S)-3-amino-1-(fluoromethyl)-5-methyl-2-thia-4-azabicyclo[4.1.0]hept-3-en-5-yl)-4-fluorophenyl)-2-(((1S)-1-methyl-2-propyn-1-yl)oxy)pyrido[3,4-b]pyrazin-5-amine]	41%	19%	0.000771 µM	0.0207 µM	0.263 µM	810 µM
Cc1nc(COc2cnc3c(Nc4ccc(F)c([C@@]5(C)N=C(N)S[C@@]6(CF)C[C@H]65)c4)nccc3n2)no1 [Example 828, N-(3-((1S,5S,6S)-3-amino-1-(fluoromethyl)-5-methyl-2-thia-4-azabicyclo[4.1.0]hept-3-en-5-yl)-4-fluorophenyl)-2-((5-methyl-1,2,4-oxadiazol-3-yl)methoxy)pyrido[3,4-b]pyrazin-5-amine]	24%	10%	0.00496 µM	0.00446 µM	0.207 µM	995 µM
COC[C@]12C[C@H]1[C@@](C)(c1cc(NC(=O)c3cnc(OCC(F)(F)F)cn3)ccc1F)N=C(N)S2 [Example 831, N-(3-((1S,5S,6S)-3-amino-1-(methoxymethyl)-5-methyl-2-thia-4-azabicyclo[4.1.0]hept-3-en-5-yl)-4-fluorophenyl)-5-(2,2,2-trifluoroethoxy)-2-pyrazinecarboxamide]	49%	16%	0.00299 µM	0.00359 µM	0.118 µM	> 400 µM
C#CCOc1cnc(C(=O)Nc2ccc(F)c([C@@]3(C)N=C(N)S[C@@]4(COC)C[C@H]43)c2)cn1 [Example 834, N-(3-((1S,5S,6S)-3-amino-1-(methoxymethyl)-5-methyl-2-thia-4-azabicyclo[4.1.0]hept-3-en-5-yl)-4-fluorophenyl)-5-(2-propyn-1-yloxy)-2-pyrazinecarboxamide]	83%	83%	0.000404 µM	0.000489 µM	0.0127 µM	318 µM
C#CCOc1cnc2c(Nc3cc(F)c(F)c([C@@]4(CF)N=C(N)S[C@H]5C[C@H]54)c3)nccc2n1 [Example 841, N-(3-((1S,5S,6S)-3-amino-5-(fluoromethyl)-2-thia-4-azabicyclo[4.1.0]hept-3-en-5-yl)-4,5-difluorophenyl)-2-(2-propyn-1-yloxy)pyrido[3,4-b]pyrazin-5-amine]	58%	44%	0.00114 µM	0.0216 µM	0.0449 µM	598 µM
NC1=N[C@](CF)(c2cc(Nc3nccc4nc(OCc5ncco5)cnc34)cc(F)c2F)[C@@H]2C[C@@H]2S1 [Example 842, N-(3-((1S,5S,6S)-3-amino-5-(fluoromethyl)-2-thia-4-azabicyclo[4.1.0]hept-3-en-5-yl)-4,5-difluorophenyl)-2-(1,3-oxazol-2-ylmethoxy)pyrido[3,4-b]pyrazin-5-amine]	51%	25%	0.00256 µM	0.0217 µM	0.119 µM	> 400 µM
NC1=N[C@](CF)(c2cc(Nc3nccc4nc(OCc5cocn5)cnc34)cc(F)c2F)[C@@H]2C[C@@H]2S1 [Example 843, N-(3-((1S,5S,6S)-3-amino-5-(fluoromethyl)-2-thia-4-azabicyclo[4.1.0]hept-3-en-5-yl)-4,5-difluorophenyl)-2-(1,3-oxazol-4-ylmethoxy)pyrido[3,4-b]pyrazin-5-amine]	51%	16%	0.00378 µM	0.0493 µM	0.115 µM	432 µM
C#CCOc1cnc2c(Nc3cc(F)c(F)c([C@@]4(C)N=C(N)S[C@@]5(C(N)=O)C[C@H]54)c3)nccc2n1 [Example 911, (1S,5S,6S)-3-amino-5-(2,3-difluoro-5-((2-(2-propyn-1-yloxy)pyrido[3,4-b]pyrazin-5-yl)amino)phenyl)-5-methyl-2-thia-4-azabicyclo[4.1.0]hept-3-ene-1-carboxamide]	21%	20%	0.000649 µM	0.0038 µM	0.00714 µM	> 400 µM
C#CCOc1cnc2c(Nc3cc(F)c(F)c([C@@]4(C)N=C(N)S[C@@]5(C(=O)NC)C[C@H]54)c3)nccc2n1 [Example 915, (1S,5S,6S)-3-amino-5-(2,3-difluoro-5-((2-(2-propyn-1-yloxy)pyrido[3,4-b]pyrazin-5-yl)amino)phenyl)-N,5-dimethyl-2-thia-4-azabicyclo[4.1.0]hept-3-ene-1-carboxamide]	51%	47%	0.000426 µM	0.00195 µM	0.0101 µM	> 400 µM
C#CCOc1cnc2c(Nc3cc(F)c(F)c([C@@]4(C)N=C(N)S[C@@]5(C#N)C[C@H]54)c3)ncnc2c1 [Example 921, (1S,5S,6S)-3-amino-5-(2,3-difluoro-5-((7-(2-propyn-1-yloxy)pyrido[3,2-d]pyrimidin-4-yl)amino)phenyl)-5-methyl-2-thia-4-azabicyclo[4.1.0]hept-3-ene-1-carbonitrile]	70%	64%	0.00198 µM	0.0206 µM	0.0627 µM	172 µM
C#CCOc1cnc(C(=O)Nc2cc(F)c(F)c([C@@]3(C)N=C(N)S[C@@]4(C#N)C[C@H]43)c2)cn1 [Example 924, N-(3-((1S,5S,6S)-3-amino-1-cyano-5-methyl-2-thia-4-azabicyclo[4.1.0]hept-3-en-5-yl)-4,5-difluorophenyl)-5-(2-propyn-1-yloxy)-2-pyrazinecarboxamide]	84%	76%	0.000249 µM	0.00138 µM	< 0.00203 µM	17.8 µM
C#C[C@H](C)Oc1cnc2c(Nc3cc(F)c(F)c([C@@]4(C)N=C(N)S[C@@]5(C#N)C[C@H]54)c3)nccc2n1 [Example 931, (1S,5S,6S)-3-amino-5-(2,3-difluoro-5-((2-(((1S)-1-methyl-2-propyn-1-yl)oxy)pyrido[3,4-b]pyrazin-5-yl)amino)phenyl)-5-methyl-2-thia-4-azabicyclo[4.1.0]hept-3-ene-1-carbonitrile]	8%	3%	0.000902 µM	0.0386 µM	0.0551 µM	633 µM
C#CCOc1cnc2c(Nc3ccc(F)c([C@@]4(CF)N=C(N)S[C@H]5C[C@H]54)c3)ncnc2c1 [Example 941, N-(3-((1S,5S,6S)-3-amino-5-(fluoromethyl)-2-thia-4-azabicyclo[4.1.0]hept-3-en-5-yl)-4-fluorophenyl)-7 (2-propyn-1-yloxy)pyrido[3,2-d]pyrimidin-4-amine]	41%	2%	0.00962 µM	0.0129 µM	0.2 µM	780 µM
